From patent US20120156615A1, “CYCLIC COMPOUND, PROCESS FOR PRODUCTION OF THE CYCLIC COMPOUND, RADIATION-SENSITIVE COMPOSITION, AND METHOD FOR FORMATION OF RESIST PATTERN” (MITSUBISHI GAS CHEMICAL COMPANY, INC., priority 2009, published 2012)

Assay: Solubility of compound in safety solvent
Assay type: physicochemical
Settings: for solubility in CHN (dissolved amount): solvent cyclohexanone (CHN); for solubility in PGME (dissolved amount): solvent propylene glycol monomethyl ether (PGME)
Description: (1) Solubility of Compound in Safety Solvent
The compounds obtained in Synthesis Examples 1 to 6 and Synthesis 1 to 4 were evaluated for the solubility in propylene glycol monomethyl ether (PGME) and cyclohexanone (CHN).
A: 20.0 wt %≦dissolved amount
B: 1.0 wt %≦dissolved amount<20.0 wt %
C: dissolved amount<1.0 wt %

| SMILES | solubility in CHN (dissolved amount) | solubility in PGME (dissolved amount) |
| --- | --- | --- |
| Oc1cc(O)c2cc1C(c1ccc(C3CCCCC3)cc1)c1cc(c(O)cc1O)C(c1ccc(C3CCCCC3)cc1)c1cc(c(O)cc1O)C(c1ccc(C3CCCCC3)cc1)c1cc(c(O)cc1O)C2c1ccc(C2CCCCC2)cc1 (stereo not shown) [CR-4A] | B (1.0 wt %≦dissolved amount<20.0 wt %) | B (1.0 wt %≦dissolved amount<20.0 wt %) |
| CC(C)c1ccc(C2c3cc(c(O)cc3O)C(c3ccc(C(C)C)cc3)c3cc(c(O)cc3O)C(c3ccc(C(C)C)cc3)c3cc(c(O)cc3O)C(c3ccc(C(C)C)cc3)c3cc2c(O)cc3O)cc1 (stereo not shown) [CR-1A] | B (1.0 wt %≦dissolved amount<20.0 wt %) | B (1.0 wt %≦dissolved amount<20.0 wt %) |
